Patent publication US6455248B1, “Reagents and kits for detecting fungal pathogens in a biological sample” (Miami University, priority 1996, dated 2002)

Experiments:
[1] = target: T1, α-aminoadipate reductase (AAR) (Candida albicans, UniProt Q12572); assay: Feedback inhibition of aminoadipate reductase activity in dialyzed cell extract; type: biochemical; conditions: for AAR activity: cell extract alone 19.76
T1 construct: The crude extracts were dialyzed and used as the enzyme source for the AAR activity; endogenous in cells; host or cells: C. albicans cells, dialyzed crude extract
T1 sequence (Q12572 1-1391): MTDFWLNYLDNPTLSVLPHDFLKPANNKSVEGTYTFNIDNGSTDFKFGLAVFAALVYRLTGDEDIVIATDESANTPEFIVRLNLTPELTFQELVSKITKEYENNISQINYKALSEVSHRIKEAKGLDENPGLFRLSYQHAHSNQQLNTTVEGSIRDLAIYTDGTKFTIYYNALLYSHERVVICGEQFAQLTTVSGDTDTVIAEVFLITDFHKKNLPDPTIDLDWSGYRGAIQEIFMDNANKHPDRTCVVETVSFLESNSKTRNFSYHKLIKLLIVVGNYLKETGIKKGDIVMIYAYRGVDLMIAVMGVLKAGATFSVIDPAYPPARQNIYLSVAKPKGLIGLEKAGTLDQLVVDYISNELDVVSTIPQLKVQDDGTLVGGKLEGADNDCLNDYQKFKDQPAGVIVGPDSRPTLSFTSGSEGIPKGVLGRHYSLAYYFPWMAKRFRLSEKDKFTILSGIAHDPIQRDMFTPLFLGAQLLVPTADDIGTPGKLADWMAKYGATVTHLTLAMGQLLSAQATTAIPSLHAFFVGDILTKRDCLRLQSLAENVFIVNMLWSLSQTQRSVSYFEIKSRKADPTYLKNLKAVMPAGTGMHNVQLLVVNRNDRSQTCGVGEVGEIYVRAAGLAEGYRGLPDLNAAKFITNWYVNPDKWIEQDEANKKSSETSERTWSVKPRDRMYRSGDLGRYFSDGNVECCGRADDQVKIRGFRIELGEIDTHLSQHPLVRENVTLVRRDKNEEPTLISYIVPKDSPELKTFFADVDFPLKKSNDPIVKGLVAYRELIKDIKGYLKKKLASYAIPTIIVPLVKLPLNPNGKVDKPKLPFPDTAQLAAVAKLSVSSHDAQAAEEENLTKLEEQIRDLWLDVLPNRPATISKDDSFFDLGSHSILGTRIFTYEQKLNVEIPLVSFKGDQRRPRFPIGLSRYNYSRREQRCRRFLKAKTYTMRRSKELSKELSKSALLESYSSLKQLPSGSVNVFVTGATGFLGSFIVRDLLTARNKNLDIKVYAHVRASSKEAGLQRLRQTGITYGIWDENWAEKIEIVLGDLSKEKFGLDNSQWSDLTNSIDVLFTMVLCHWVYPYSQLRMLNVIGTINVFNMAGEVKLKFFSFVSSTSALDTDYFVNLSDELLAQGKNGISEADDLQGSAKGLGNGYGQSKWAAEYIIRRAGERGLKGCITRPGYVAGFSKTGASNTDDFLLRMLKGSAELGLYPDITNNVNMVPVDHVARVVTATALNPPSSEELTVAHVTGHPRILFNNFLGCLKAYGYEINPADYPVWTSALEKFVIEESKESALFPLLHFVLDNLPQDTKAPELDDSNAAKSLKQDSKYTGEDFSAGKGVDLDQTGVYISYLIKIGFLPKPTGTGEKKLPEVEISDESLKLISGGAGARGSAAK
Experimental: (§1) Cells were grown in appropriate media at 30° C. with constant shaking and harvested during the late logarithmic phase. Crude enzyme preparations were obtained by disruption of the cells in a Braun homogenizer flask in the case of S. cerevisiae (Sinha and Bhattacharjee 1971), and by vortexing with glass beads for 30 s with 30 s intervals at 4° C. for a total of 5 mins in case of C. albicans. The crude extracts were dialyzed and used as the enzyme source for the AAR activity. The amount of protein in the dialyzed extracts was determined according to the procedure of Bradford (1976).
The AAR activity was assayed using previously described procedure (Sagisaka and Shimura 1962). The reaction mixture consisted of DL aminoadipate, 12.5 mM; ATP, 15 mM; MgCl2, 10 mM; reduced glutathione, 1 mM; α-NADPH (tetra sodium salt), 0.625 mM; and Tris HCl, 250 mM (pH8.0). Dialysed cell extract was added to a final concentration of 0.02-1.0 mg of dialyzed protein. Tubes lacking aminoadipate were used as controls. The reaction mixtures were incubated at 30 ° C. for 1 h and terminated by the addition of Iml of 2% p-dimethylaminobenzaldehyde (PDAB) in 2-methoxyethanol. Activity of AAR was reported in units of A460 h-^1 mg protein-^1.
Feedback inhibition by the end product, lysine, was determined by addition of various concentrations of lysine to the reaction mixture. 50 mM lysine inhibited the AAR activity by 70%. However, when a lysine analog, [S-(2-amino ethyl)] L-Cysteine L-thialysine), was used, 1 mM thialysine was sufficient to abolish 92% of the enzyme activity (Table 5).

LYS2 mRNA = assay: Northern blot analysis of LYS2 mRNA; type: cell-based; conditions: C. albicans WT9517 grown in minimal medium supplemented with lysine
Experimental: Total RNA was isolated from C. albicans WA95 17 cells grown in different media according to the procedure described by Sherman et al. (1986). Total RNA (20 μg/lane) was fractionated by electrophoresis on a 1% agarose gel, transferred to nylon membranes, and hybridized to LYS2 gene and 18 s rDNA radio-labelled probes. The 2.0 kb EcoRI PstI fragment of the LYS2 gene was labelled with [a^32P]DTP by a random primer kit (Gibco BRL) and used as a probe. A plasmid carrying the 18S rDNA was also labeled similarly and used as ribosomal probe. Hybridization was carried out at 60° C. in 0.5 M Sodium phosphate (pH 7.2), 7% SDS, 1% BSA, 1 mM EDTA (pH 8.0). The membrane was washed in 2×SSC and 0.1% SDS at room temperature for 30 min and followed by a wash in 0.5×SSC and 0.1% SDS at 60° C. for 30 min. The membrane was stripped by boiling in 0.1×SSC and 0.1% SDS for 30 min followed by washing with water at 65° C. for 30 min and then reprobed.
To determine if the LYS2 gene expression is controlled at the transcriptional level by lysine and by other amino acids in rich medium, total RNA was extracted from C. albicans WT9517 grown in minimal medium, minimal medium supplemented with lysine, and in YEPD medium. The blot was quantitated using a beta scanner and the AMBIS Image analysis software. […] The LYS2 mRNA level in YEPD grown cells could not be detected. […]

[2] = tested on: AAR of C. albicans WT 9517 cells; assay: AAR activity of cells grown in different media; type: cell-based
Experimental: Yeast strains were maintained on yeast extract-peptone-dextrose medium (YEPD). Minimal medium (MM) consisted of 1% dextrose and 0.67% yeast nitrogen base without amino acid. Minimal medium was supplemented with L-lysine (50 μg/ml) where appropriate. Escherichia coli strains were maintained on Luria Bertani medium. Plasmid containing strains were maintained in L-agar containing ampicillin at a concentration of 50 μg/ml.
as §1
The AAR activity was assayed using previously described procedure (Sagisaka and Shimura 1962). […]
The AAR activity of C. albicans WT 9517 cells was determined for cells grown in minimal medium, minimal medium supplemented with lysine, and YEPD. […]

[3] = cell extract + 1 mM inhibitor in reaction mixture
[4] = cell extract + 10 mM inhibitor in reaction mixture

| inhibition at 1000 µM ([1]; 1 mM in reaction mixture, read-out: inhibition of AAR enzyme activity) [%] | SMILES | AAR activity [1, 3] [A460 h^−1 mg protein^−1] | AAR activity [1, 4] [A460 h^−1 mg protein^−1] | AAR activity ([1]; cell extract + 50 mM inhibitor in reaction mixture) [A460 h^−1 mg protein^−1] | inhibition at 50000 µM ([1]; read-out: inhibition of AAR activity) [%] | level of LYS2 mRNA compared to cells grown in minimal medium (LYS2 mRNA) | repression of AAR activity compared to cells grown in minimal medium ([2]; cells grown in minimal medium supplemented with lysine) [%] | AAR activity ([2]; cells grown in minimal medium supplemented with lysine (L-lysine 50 μg/ml), minimal medium alone 19.79) [A460 h^−1 mg protein^−1] |
| --- | --- | --- | --- | --- | --- | --- | --- | --- |
|  | NCCCC[C@H](N)C(=O)O [lysine, L-lysine] | 19.34 | 9.68 | 5.92 | 70 | significantly lower | 40 | 11.87 |
| 92 | NCCSC[C@H](N)C(=O)O [thialysine, [S-(2-amino ethyl)] L-Cysteine] | 3.58 | 1.78 |  |  |  |  |  |
